Tests used:
[1] = molecular target: T1, Ga3PDHase (phosphorylating NAD+-dependent glyceraldehyde-3-phosphate dehydrogenase, EC 1.2.1.12) (Triticum aestivum, UniProt A5YVV3); test: Kd from protection against H2O2 inactivation in presence of NAD+ (Mildvan and Leigh plot); S0.[…] by enzyme kinetics; format: biochemical
T1 construct: gene GAPC; recombinant wheat gapC (NCBI EF592180), homotetramer, E. coli

[2] = molecular target: T2, np-Ga3PDHase (non-phosphorylating NADP+-dependent glyceraldehyde-3-phosphate dehydrogenase, EC 1.2.1.9) (Triticum aestivum, UniProt Q8LK61); test: Kd from protection against H2O2 inactivation of purified enzyme (Mildvan and Leigh plot); format: biochemical
T2 construct: gene GAPN; recombinant wheat enzyme (NCBI DQ268762), pRSETB/TagapN, E. coli
T2 sequence (Q8LK61 1-496): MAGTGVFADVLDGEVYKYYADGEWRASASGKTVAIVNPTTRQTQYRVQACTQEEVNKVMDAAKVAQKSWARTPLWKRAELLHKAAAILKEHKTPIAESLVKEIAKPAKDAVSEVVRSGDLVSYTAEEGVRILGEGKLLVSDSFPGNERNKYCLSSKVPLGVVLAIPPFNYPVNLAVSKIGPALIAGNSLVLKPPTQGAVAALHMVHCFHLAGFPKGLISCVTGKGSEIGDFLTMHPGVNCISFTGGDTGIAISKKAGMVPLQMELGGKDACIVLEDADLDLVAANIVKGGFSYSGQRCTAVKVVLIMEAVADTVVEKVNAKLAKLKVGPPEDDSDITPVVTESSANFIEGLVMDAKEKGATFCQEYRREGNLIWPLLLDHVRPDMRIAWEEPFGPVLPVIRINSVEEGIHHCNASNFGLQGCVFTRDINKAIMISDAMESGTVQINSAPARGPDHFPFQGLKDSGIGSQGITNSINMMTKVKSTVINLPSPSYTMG

T1 sequence (A5YVV3 1-337): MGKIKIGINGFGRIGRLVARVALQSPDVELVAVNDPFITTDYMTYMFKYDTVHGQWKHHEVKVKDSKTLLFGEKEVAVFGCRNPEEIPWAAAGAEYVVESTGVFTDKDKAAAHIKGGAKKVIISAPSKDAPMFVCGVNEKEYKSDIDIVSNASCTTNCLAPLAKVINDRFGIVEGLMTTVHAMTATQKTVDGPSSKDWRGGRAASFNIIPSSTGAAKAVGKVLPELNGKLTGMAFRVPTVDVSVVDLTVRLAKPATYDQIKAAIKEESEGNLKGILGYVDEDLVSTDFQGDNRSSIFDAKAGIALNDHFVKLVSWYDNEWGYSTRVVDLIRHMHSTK

SMILES: O=C[C@H](O)COP(=O)(O)O [glyceraldehyde-3-phosphate]
- Kd [1]: 115 µM

SMILES: NC(=O)c1ccc[n+]([C@@H]2O[C@H](COP(=O)([O-])OP(=O)(O)OC[C@H]3O[C@@H](n4cnc5c(N)ncnc54)[C@H](OP(=O)(O)O)[C@@H]3O)[C@@H](O)[C@H]2O)c1 [NADP^+]
- Kd [2]: 2.5 µM

From publication PMC3645732, “A Differential Redox Regulation of the Pathways Metabolizing Glyceraldehyde-3-Phosphate Tunes the Production of Reducing Power in the Cytosol of Plant Cells” (International Journal of Molecular Sciences, 2013)
